Experimental data as given in ChEMBL document CHEMBL5726465, “Therapeutic compounds” (2019).

Molecular target: CREB-binding protein (Homo sapiens, UniProt Q92793)
Experiment: In Vitro Enzyme Inhibition Assay-CREBBP Inhibition: Determination of the IC50 for the CREBBP inhibitors disclosed herein was performed as follows: CREBBP was cloned and expressed in E. Coli as His-tag protein and purified by Nickel affinity and gel-filtration chromatography. The protein was further characterized as a single band with the correct molecular weight by SDS-PAGE. CREBBP binding and inhibition was assessed by monitoring the interaction of biotinylated H4-tetraacetyl peptide (AnaSpec, H4K5/8/12/16(Ac), biotin-labeled) with the target using the AlphaScreen technology (Perkin Elmer). In a 384-well ProxiPlate CREBBP (50 nM final) was combined with peptide (20 nM final) in 50 mM HEPES (pH 7.3), 10 mM NaCl, 0.25 mM TCEP, 0.1% (w/v) BSA, and 0.005% (w/v) Brij-35 either in the presence of DMSO (final 0.4% DMSO) or compound dilution series in DMSO. After 20-minute incubation at room temperature, Alpha streptavidin donor beads and Nickel Chelate acceptor beads were added to a final concentration of 5 μg/mL. After two hours of equilibration, plates were read on an Envision instrument and the IC50 was calculated using a four parameter non-linear curve fit.The ability of the compounds disclosed herein to inhibit CBP activity was quantified and the respective IC50 value was determined.

CREB-binding protein, sequence (Q92793 whole entry): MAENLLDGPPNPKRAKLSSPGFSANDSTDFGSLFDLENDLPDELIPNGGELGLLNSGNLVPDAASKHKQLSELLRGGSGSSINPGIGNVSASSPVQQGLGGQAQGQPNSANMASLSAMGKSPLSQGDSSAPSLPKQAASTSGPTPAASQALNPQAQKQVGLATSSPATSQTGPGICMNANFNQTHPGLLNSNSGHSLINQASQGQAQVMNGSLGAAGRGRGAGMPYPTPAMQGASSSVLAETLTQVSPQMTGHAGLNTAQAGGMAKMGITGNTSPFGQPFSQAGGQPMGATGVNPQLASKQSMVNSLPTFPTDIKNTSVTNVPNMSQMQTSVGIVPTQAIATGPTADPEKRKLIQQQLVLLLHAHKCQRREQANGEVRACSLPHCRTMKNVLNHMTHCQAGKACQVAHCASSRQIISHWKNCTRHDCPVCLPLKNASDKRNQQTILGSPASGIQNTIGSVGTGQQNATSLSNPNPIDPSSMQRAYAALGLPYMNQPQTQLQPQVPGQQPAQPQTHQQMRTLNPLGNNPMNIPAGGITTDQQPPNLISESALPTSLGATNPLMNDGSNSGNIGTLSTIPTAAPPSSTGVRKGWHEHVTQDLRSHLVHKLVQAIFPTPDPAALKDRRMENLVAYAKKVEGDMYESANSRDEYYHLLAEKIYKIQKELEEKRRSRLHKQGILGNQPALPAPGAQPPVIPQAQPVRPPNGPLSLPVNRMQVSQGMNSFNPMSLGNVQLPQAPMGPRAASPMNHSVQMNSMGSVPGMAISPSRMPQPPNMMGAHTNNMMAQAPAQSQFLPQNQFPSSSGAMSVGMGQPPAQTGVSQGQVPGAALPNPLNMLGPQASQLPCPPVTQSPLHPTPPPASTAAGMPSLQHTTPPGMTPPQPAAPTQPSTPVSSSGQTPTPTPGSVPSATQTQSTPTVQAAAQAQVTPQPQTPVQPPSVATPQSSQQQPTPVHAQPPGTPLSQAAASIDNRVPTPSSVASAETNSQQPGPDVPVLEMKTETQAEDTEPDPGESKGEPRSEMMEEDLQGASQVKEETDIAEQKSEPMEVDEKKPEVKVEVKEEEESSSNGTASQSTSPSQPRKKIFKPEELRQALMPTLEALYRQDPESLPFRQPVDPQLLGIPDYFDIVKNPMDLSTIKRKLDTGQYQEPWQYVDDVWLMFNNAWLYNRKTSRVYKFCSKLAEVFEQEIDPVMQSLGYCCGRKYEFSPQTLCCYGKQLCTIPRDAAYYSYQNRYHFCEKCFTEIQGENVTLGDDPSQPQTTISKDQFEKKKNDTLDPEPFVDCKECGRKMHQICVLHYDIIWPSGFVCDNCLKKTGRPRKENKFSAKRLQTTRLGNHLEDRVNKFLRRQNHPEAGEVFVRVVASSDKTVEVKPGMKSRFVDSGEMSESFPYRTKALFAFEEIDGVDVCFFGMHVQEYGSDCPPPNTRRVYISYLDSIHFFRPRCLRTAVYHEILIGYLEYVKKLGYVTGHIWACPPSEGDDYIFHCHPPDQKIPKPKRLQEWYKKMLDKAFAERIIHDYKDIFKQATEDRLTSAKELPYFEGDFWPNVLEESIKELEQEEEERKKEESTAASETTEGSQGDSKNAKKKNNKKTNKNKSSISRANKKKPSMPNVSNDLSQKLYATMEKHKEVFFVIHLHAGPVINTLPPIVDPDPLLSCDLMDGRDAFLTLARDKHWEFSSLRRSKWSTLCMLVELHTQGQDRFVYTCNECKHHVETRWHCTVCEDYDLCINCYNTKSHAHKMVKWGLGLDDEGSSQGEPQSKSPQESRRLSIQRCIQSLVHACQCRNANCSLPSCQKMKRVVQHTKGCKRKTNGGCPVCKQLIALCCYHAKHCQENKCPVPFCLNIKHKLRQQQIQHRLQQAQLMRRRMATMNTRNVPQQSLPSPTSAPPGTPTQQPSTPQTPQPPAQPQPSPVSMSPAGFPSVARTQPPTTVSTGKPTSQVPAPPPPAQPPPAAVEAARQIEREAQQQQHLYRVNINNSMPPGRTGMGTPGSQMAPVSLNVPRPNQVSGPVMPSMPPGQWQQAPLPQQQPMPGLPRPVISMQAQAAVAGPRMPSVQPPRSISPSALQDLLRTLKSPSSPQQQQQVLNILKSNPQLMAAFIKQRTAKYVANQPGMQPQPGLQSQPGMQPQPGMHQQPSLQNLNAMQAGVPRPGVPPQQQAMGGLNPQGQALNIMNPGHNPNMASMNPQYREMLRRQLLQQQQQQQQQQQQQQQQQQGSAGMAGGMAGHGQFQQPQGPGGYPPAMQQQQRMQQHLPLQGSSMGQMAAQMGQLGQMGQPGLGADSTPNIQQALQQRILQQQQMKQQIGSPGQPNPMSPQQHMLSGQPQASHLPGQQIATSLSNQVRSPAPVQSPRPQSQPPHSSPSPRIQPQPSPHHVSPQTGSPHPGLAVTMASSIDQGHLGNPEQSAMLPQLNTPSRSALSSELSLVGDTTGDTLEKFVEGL

Structure (SMILES): Cc1cccc(Cl)c1Oc1nc(NS(=O)(=O)C(C)C)cc(-c2cc(Cl)c(=O)n(C)c2)n1
- IC50: < 500 nM

Structure (SMILES): CCCCS(=O)(=O)Nc1cc(-c2cc(Cl)c(=O)n(C)c2)nc(Oc2c(C)cccc2Cl)n1
- IC50: < 500 nM

Structure (SMILES): Cc1cccc(F)c1Oc1nc(NS(=O)(=O)CC2CC2)cc(-c2ccc(=O)n(C)c2)n1
- IC50: < 500 nM

Structure (SMILES): Cc1cccc(F)c1Oc1nc(NS(=O)(=O)CCC(F)(F)F)cc(-c2ccc(=O)n(C)c2)n1
- IC50: < 500 nM

Structure (SMILES): Cc1cccc(F)c1Oc1nc(NS(=O)(=O)CCC2CC2)cc(-c2ccc(=O)n(C)c2)n1
- IC50: < 500 nM

Structure (SMILES): CCNc1cc(-c2cc(C)c(=O)n(C)c2)nc(Oc2ccc(F)cc2F)n1
- IC50: < 500 nM

Structure (SMILES): CCCCS(=O)(=O)Nc1nc(Oc2c(C)cccc2C)nc(-c2cc(C)c(=O)n(C)c2)n1
- IC50: < 500 nM
